Literature values as cited in paper PMC12655172, “Borylated 5-Membered Ring Iminosugars: Synthesis and Biological Evaluation for Glycosidase Inhibition and Anticancer Properties for Application in Boron Neutron Capture Therapy (BNCT)—Part 2” (Pharmaceuticals, 2025).

Experiments:
β-glucosidase (almond) = biological target: β-glucosidase (almond); set-up: method as in PMID 33228403; conditions: cited from earlier work
amyloglucosidase = conditions: read-out: IC50 amyloglucosidase; cited from earlier work
[1] = tested on: β-D-galactosidase (E. coli); conditions: cited from earlier work
[2] = tested on: T1, α-D-mannosidase (Jack bean); conditions: cited from earlier work
T1 construct: purchased Sigma-Aldrich; host or cells: Jack bean

[3] = tested on: α-D-galactosidase (coffee bean); conditions: cited from earlier work
α-L-fucosidase = tested on: α-L-fucosidase; set-up: method as in PMID 2706004; conditions: cited from earlier work
[4] = biological target: α-glucosidase (endoplasmatic reticulum I); set-up: method as in PMID 19294724; conditions: cited from earlier work
[5] = biological target: α-glucosidase (endoplasmatic reticulum II); set-up: method as in PMID 19294724; conditions: cited from earlier work
α-D-glucosidase = biological target: α-D-glucosidase; set-up: method as in PMID 31557624; conditions: cited from earlier work
[6] = tested on: α-D-mannosidase (lysosomal acidic); set-up: method as in PMID 8457203; conditions: cited from earlier work
[7] = biological target: α-D-mannosidase (fruit fly lysosomal acidic); set-up: method as in PMID 29323461; conditions: cited from earlier work
[8] = biological target: α-D-mannosidase (fruit fly Golgi II); set-up: method as in PMID 29323461; conditions: cited from earlier work
[9] = tested on: α-D-mannosidase (neutral); set-up: method as in PMID 8457203; conditions: cited from earlier work
[10] = tested on: α-D-mannosidase (Golgi II); set-up: method as in PMID 8457203; conditions: cited from earlier work
[11] = biological target: T2, β-D-glucosidase (bovine liver) (Bos taurus, UniProt F1MNT6); set-up: method as in PMID 41011173; conditions: cited from earlier work
T2 sequence (F1MNT6 1-469): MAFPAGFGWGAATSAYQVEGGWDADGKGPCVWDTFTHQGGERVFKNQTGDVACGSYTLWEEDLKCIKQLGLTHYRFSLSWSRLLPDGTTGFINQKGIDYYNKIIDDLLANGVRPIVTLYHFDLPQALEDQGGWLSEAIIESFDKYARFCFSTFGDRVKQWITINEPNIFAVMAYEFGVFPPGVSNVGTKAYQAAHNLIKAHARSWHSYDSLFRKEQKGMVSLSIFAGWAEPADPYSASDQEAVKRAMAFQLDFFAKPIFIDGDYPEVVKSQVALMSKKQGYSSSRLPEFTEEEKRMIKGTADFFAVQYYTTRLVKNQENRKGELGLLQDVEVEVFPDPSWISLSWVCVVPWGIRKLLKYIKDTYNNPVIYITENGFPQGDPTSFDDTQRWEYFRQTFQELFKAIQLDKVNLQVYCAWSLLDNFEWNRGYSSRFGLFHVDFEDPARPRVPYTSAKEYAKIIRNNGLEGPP

β-D-glucosidase (almond) [12] = tested on: β-D-glucosidase (almond); set-up: method as in PMID 41011173; conditions: Table 3 type assay; cited from earlier work
β-D-glucosidase (almond) [13] = tested on: β-D-glucosidase (almond); set-up: method as in PMID 41011173; conditions: cited from earlier work

In the case of `OC[C@H]1NC[C@H](O)[C@@H](O)[C@@H]1O` [1-DNJ], the IC50 (β-glucosidase (almond)) is listed as […] and the IC50 (amyloglucosidase) is listed as 2.1 µM.
In the case of `Cl.OC[C@@H](O)[C@H]1[C@H](O)[C@H](O)CN1Cc1ccccc1B(O)O` [N-(2-Methylphenylboronic acid)-1,4-dideoxy-1,4-imino-D-talitol.HCl], the “inhibition β-D-galactosidase (E. coli)” value [1] is given as “β-D-Galactosidase (E. coli) (44–55%)”, the “inhibition α-D-mannosidase (Jack bean)” value [2] is given as 10% and the “inhibition α-D-galactosidase (coffee bean)” value [3] is given as less than 5%.
For `OC[C@@H](O)[C@@H]1[C@@H](O)[C@@H](O)CN1Cc1ccccc1` [N-Benzyl-1,4-dideoxy-1,4-imino-D-allitol], the “inhibition α-L-fucosidase” value (α-L-fucosidase) is listed as “α-L-Fucosidase (76%)”.
For `Cl.OC[C@@H](O)[C@H]1[C@H](O)[C@H](O)CN1Cc1ccccc1` [N-Benzyl-1,4-dideoxy-1,4-imino-D-talitol.HCl], the “inhibition β-D-galactosidase (E. coli)” value [1] is listed as “poorly inhibited”, the “inhibition α-D-mannosidase (Jack bean)” value [2] is listed as “poorly inhibited” and the “inhibition α-D-galactosidase (coffee bean)” value [3] is listed as “poorly inhibited”.
For `CCCCN1C[C@H](O)[C@@H](O)[C@H](O)[C@H]1CO` [N-Butyl-DNJ], the IC50 [4] is given as 0.68 µM and the IC50 [5] is given as 10.8 µM.
For `OC[C@@H](O)[C@H]1[C@H](O)[C@@H](O)CN1Cc1ccccc1` [N-benzyl-1,4-dideoxy-1,4-imino-D-galactitol], the IC50 (α-D-glucosidase) is given as 40.6 µM and the “inhibition α-D-glucosidase” value (α-D-glucosidase) is given as 93.2%.
In the case of `Cl.OC[C@@H](O)[C@@H]1[C@H](O)[C@H](O)CN1Cc1ccccc1` [N-benzyl-1,4-dideoxy-1,4-imino-D-mannitol.HCl], the “inhibition α-D-mannosidase lysosomal acidic” value [6] is given as 34%, the IC50 [7] is given as 1500 µM and the IC50 [8] is given as 690 µM. For the same molecule, the “inhibition α-D-mannosidase neutral” value [9] was 44% and the “inhibition α-D-mannosidase Golgi II” value [10] was 72%.
In the case of `OB(O)c1ccc(CN2C[C@@H](O)[C@H]3OC(O)[C@H](O)[C@H]32)cc1` (stereo partly drawn) [para 7, N-(4-methylphenylboronic acid)-3,6-dideoxy-3,6-imino-D-gulofuranose], the “inhibition % β-D-Glucosidase Bovine Liver” value [11] is given as 38.8%, the “Percentage inhibition β-D-Glucosidase Almond” value (β-D-glucosidase (almond) [12]) is given as 68.1% and the “inhibition % β-D-Glucosidase Almond” value (β-D-glucosidase (almond) [13]) is given as 43.6%.
